Experimental data from EP0229966A1, “Process for the control of weeds in useful plant cultures and means for performing the process” (SIEGFRIED AKTIENGESELLSCHAFT, priority 1985, dated 1987).

Tests used:
[1] = tested on: 7 repräsentative Unkraut- arten; experiment: Greenhouse pot test, spray directly after sowing, EWRC rating, weeds (Tabelle I); type: in vivo; settings: EWRC scale, 1 = völlige Abtötung, 9 = völlige Wirkungslosigkeit
Text: (§1) Der Tabelle 1 liegen orientierende Versuche zugrunde, welche im klimatisierten Gewächshaus durchgeführt wurden, wobei 7 repräsentative Unkraut- arten und als Beispiel einer Kulturpflanze Raps benützt wurden. Unmittelbar nach dem Beschicken der Kunststofftöpfe mit dem Saatgut wurde (abge-
(§2) sehen von der unbehandelt bleibenden Kontrollserie) je eine Serie behandelt durch Aufsprühen einer wässrigen Suspension bzw. Emulsion, welche als Herbizid entweder nur den Aktivstoff I oder II in unterschiedlicher Menge oder beide Stoffe kombiniert in unterschiedlichen Mengen und Mengenverhältnissen enthielt. Die eingesetzten Aktivstoff-Mengen wurden umgerechnet auf die Aufwändmengen in Gramm Wirkstoff pro Hektar. Die Effekte wurden innert vier Wochen mehrmals begutachtet und protokolliert.
(§3) Die in der Tabelle I enthaltenen Wirkungsangaben wurden nach der Bonitierungs-Skala des European Weed Research Council (EWRC) bestimmt, wobei hier sowohl für Unkräuter wie auch für Kulturpflanze der Wert 1 der völligen Abtötung und der Wert 9 der völligen Wirkungslosigkeit zugeordnet wurde: […]

Raps = experiment: Greenhouse pot test, spray directly after sowing, crop tolerance (Tabelle I); type: in vivo
Text: as §1, §2, §3

[2] = tested on: Chenopodium album ("CHEAL"); experiment: Field trial, Swiss Mittelland, percent weed control from plant counts (Tabelle II); type: in vivo, Chenopodium album L.; settings: four weeks after treatment
Text: Die Tabelle II zeigt Resultate von Versuchen, die im Freien, nämlich im schweizerischen Mittelland auf mittelschwerem sandigem Lehmboden durchgeführt wurden. Die hier wiedergegebenen Werte sind Prozent-Zahlen, die errechnet wurden aufgrund der Formel [formula] wobei AK die Individuenzahl der jeweiligen Unkraut-Art pro Flächeneinheit der unbehandelten Kontrollparzelle und AB die entsprechende Individuenzahl pro Flächeneinheit der jeweiligen behandelten Partelle bedeutet. Die Ermittlung der Wirkung erfolgte vier Wochen nach Behandlung.

Maus = settings: cited from earlier work
Ratte = settings: cited from earlier work

| SMILES | Durchschnittswert (EWRC) gegenüber den 7 Unkraut-Arten ([1]; 4000 g/ha Aktivstoff I alone) | Schädigung Raps (Raps; 2000 g/ha Aktivstoff I alone) | Wirkung auf Chenopodium album ([2]; 4000 g/ha Aktivstoff I alone) [%] | LD 50 p.o. (Maus) [mg/kg] | Durchschnittswert (EWRC) gegenüber den 7 Unkraut-Arten ([1]; 1000 g/ha Aktivstoff II alone) | Schädigung Raps (Raps; 500 g/ha Aktivstoff II alone) | Wirkung auf Chenopodium album ([2]; 1000 g/ha Aktivstoff II alone) [%] | LD 50 p.o. (Ratte) [mg/kg] |
| --- | --- | --- | --- | --- | --- | --- | --- | --- |
| CCN(CC)C(=O)SCc1ccccc1Cl [Aktivstoff I, S-(2-Chlorbenzyl)-N,N-diethyl-thiocarbamat] | 3,5 | deutlich geschädigt | 87 | ~1850 |  |  |  |  |
| Cc1cccc(C)c1N(Cn1cccn1)C(=O)CCl [Aktivstoff II, N-(2,6-Dimethylphenyl)-N-(1-pyrazolylmethyl)-chloracetamid] |  |  |  |  | 5,5 | deutlich geschädigt | 91 | 2150 |
